# How the values were obtained:
# [1] = tested on: primary human T cells; assay: Ex-vivo expansion of human peripheral T cells with 2FF, surface fucosylation by flow cytometry (LCA surface staining); assay type: cell-based; conditions: 100 μM 2FF, 10 days in culture, CD3/CD28 beads + IL2; LCA surface staining (FIG. 4)
# Experimental: T cells were isolated from 10 mL of whole blood which was centrifuged first at 1200 rpm (300×g) for 10 min (without brakes). The top layer containing platelets was removed carefully without disrupting the white blood cell layer. Then RosetteSep™ Human T-Cell Enrichment Cocktail (Pan T Cells from StemCell technologies) was added to the remaining blood (500 μLAO mL blood). This was incubated for 20 min and then 1 mL FBS was added along with 10 mL PBS. Histopaque (20-25 mL) placed in a 50 mL Falcon the prepared blood/PBS solution was overlaid very slowly. This was centrifuged with no brake (25° C., 1500 rpm, 25 min). The top layer was removed and the T cells in the buffy coat layer were then removed to a new 50 mL tube. […]
# For in vitro culturing of primary human T cell culture, isolated T cells were re-suspended in T cell media (RPMI media supplemented with 10% Fetal calf serum (FCS), 1% Penicillin and moved into two T25 flasks, one with or and one without 100 μM 2-deoxy-2-fluoro-L-fucose. CD3/CD28 antibody coated beads (20 μL/flask) were added to activate the T cells. After 24 hr interleukin 2 (IL2) was added (100 ng/μL). Each time the cells were passaged new IL2 and 2-deoxy-2-fluoro-L-fucose were added. After 10 days in culture, expanded T cells cultured in 2FF were assessed for changes in surface fucosylation by flow cytometry (FIG. 4).
# [2] = tested on: A20 cells; assay: Anti-tumor activity of purified T cells or 2FF in s.c. A20 tumor bearing Balb/c mice; assay type: in vivo, mouse (Balb/c); conditions: treatment started at 100 mm^3 tumor; daily 20 mM 2FF in drinking water, or 2×10^6 T cells IP; versus untreated animals or T cells from untreated tumor bearing mice
# Experimental: One group received no treatment, the other three group were treated when the A20 cells reached 100 mm^3 and were treated either with daily 20 mM 2FF in the drinking water, 2×10^6 T-cells isolated from control tumor bearing mice injected IP, or 2×10^6 T-cells isolated from 2FF tumor bearing mice injected IP. Animals were monitored for subsequent tumor progression.
# [3] = tested on: A20 mouse lymphoma cells; assay: Growth of s.c. implanted A20 lymphoma in Balb/c mice receiving 2FF in drinking water; assay type: in vivo, mouse (Balb/c); conditions: 20 mM 2FF in drinking water from day 0; s.c. A20 tumors, 20 days; versus control group (FIG. 2)
# Experimental: 20 Balb/c mice were implanted with A20 cells (0.2 mL of 5×10^6 cells s.c./mouse), one group of mice consisting of 10 animals received 2FF (20 mM in drinking water) from day 0 to termination of study. A20 lymphoma tumors were allowed to grow out and mice sacrificed after 20 days.
# [4] = tested on: CD3+ T cells; assay: Surface fucosylation of CD3+ T cells isolated from spleens of A20 tumor bearing mice, flow cytometry (surface LCA staining); assay type: in vivo, mouse (Balb/c); conditions: T cells from A20 tumor bearing mice treated with 20 mM 2FF in drinking water, LCA staining (FIG. 3)
# Experimental: Mice from the untreated and 2FF treated group were sacrificed and spleens taken for CD3 T-cell enrichment. In brief spleens were collected in RPMI containing 2% FBS and cell suspensions passed through a 70 μm mesh nylon strainer washed with 2% RPMI. Cells were suspended in 10 mls of ACK lysis buffer and incubate for 5 min in this buffer to get rid of RBCs. Cells were centrifuged at 300×g for 5 minutes and re-suspended in PBS containing 2% FBS and 1 mM EDTA. T-cells were isolated using EasySep mouse T cell isolation kit as per the manufactures recommendation. Briefly, cells were re-suspended at 10^8 cells/mL to which 50 μL/mL of rat serum was added. Cells were then transferred into a 5 mL polystyrene tube and 50 μL of isolation cocktail added to the sample followed by room temperature incubation for 10 minutes. Rapid spheres were vortexed and 75 μL/mls added followed by room temperature incubation for 2.5 minutes. Sample volume was topped off to 2.5 mL and incubated with the cell isolation magnet for 2.5 minutes. The magnet was inverted and CD3^+ T cells collected and washed twice in RPMI and resuspended at 21.2×10^6 cells/ml.
structure (smiles),measurement,setting,value
"C[C@H](O)[C@@H](O)[C@@H](O)[C@H](F)C=O [2FF, 2-deoxy-2-fluoro-L-fucose]",decrease in surface fucosylation,[1],about 85%
same,tumor growth,[2],significantly delayed tumor growth and in some cases tumor regression
same,tumor progression,[3],significant delay in tumor progression
same,surface fucosylation of isolated CD3+ T cells,[4],significant reduction in surface fucosylation

# Reference: patent US11891644B2, “T cells with reduced surface fucosylation and methods of making and using the same” (Seagen Inc., priority 2017, dated 2024)
